Measured values reported in US20230024119A1, “COMBINED USE OF SODIUM TRANS-[TETRACHLORIDOBIS(1H-INDAZOLE)RUTHENATE(III)] AND ETOMOXIR FOR TREATING CANCERS” (Bold Therapeutics, Inc., priority 2019, published 2023).

Legend:
[1] = tested on: HCT116 and Capan1 cell models with acquired KP1339 resistance; test: Sensitivity of KP1339-resistant cell models to lipid-modulating agents; type: cell-based
Procedure: (§1) (also referred to herein as KP1339 or BOLD-100 or IT139). […] Lipid storage compartments (lipid droplets) were visualized fluorescently with Bodipy 493/503. Utilizing specific pharmacological inhibitors, the role of altered lipid metabolism components in KP1339 resistance was dissected. Mitochondrial oxygen consumption rate (OCR) and extracellular acidification rate (ECAR) were assessed by Seahorse XF analysis. Lipidomics and consecutive proteomics analysis were used to further characterize the resistance phenotype.

KP1339-resistant cells = details: upon KP1339 treatment
Procedure: as §1

sensitive HCT116 cells = tested on: sensitive HCT116 cells
Procedure: as §1

## CCC/C=C/C/C=C/C=C/C=N/NN=O [triacsin C]
[1]
  sensitivity towards lipid-modulating agents: hypersensitive

## [Cl][Ru]([Cl])([Cl])[Cl].[Na+].c1ccc2[nH]ncc2c1.c1ccc2[nH]ncc2c1 [KP1339, Sodium trans-[tetrachloridobis(1H-indazole)ruthenate(III)]]
KP1339-resistant cells
  mitochondrial oxygen consumption rate (OCR): stayed unchanged in resistant cells
Sensitive HCT116 cells; Seahorse Mito Stress Test, sensitive HCT116 cells
  extracellular acidification rate (ECAR): massively reduced ECAR
Sensitive HCT116 cells; upon KP1339 treatment, parental cells
  mitochondrial oxygen consumption rate (OCR): reduced in parental
Cooling the solution during the formulation process
  amount of Compound A present in the lyophilized product: greatly reduce the amount of Compound A
In water
  degradation in water: can degrade in water to Compound A

## CCCCCCCCCCC[C@@H](C[C@@H]1OC(=O)[C@H]1CCCCCC)OC(=O)[C@H](CC(C)C)NC=O [orlistat]
[1]
  sensitivity towards lipid-modulating agents: hypersensitive
